The target in data set [1] is T1, rhIGF-1/rhIGFBP-3 drug product (Homo sapiens, UniProt P05019+P17936, DEL119-195).
T1 construct: purchased Takeda, Lexington, MA, USA
Nature of the data set: In vitro physical compatibility of test medications mixed with rhIGF-1/rhIGFBP-3 (visual observation, OD320, pH, osmolality). The class given is physicochemical. As to conditions: for visual observation (and OD320) upon mixing: mixture with rhIGF-1/rhIGFBP-3 drug product.

Data set [2] concerns the target T1, rhIGF-1/rhIGFBP-3 drug product. Nature of the data set: Small-molecule chemical compatibility: small-molecule content post mixing by RP-HPLC-UV or ion chromatography. The class given is physicochemical. The following applies: post mixing with rhIGF-1/rhIGFBP-3 drug product, last specified time point(s).
Data set [3] has the same target. Nature of the data set: Protein-specific (mass spectrometry-based) analyses of rhIGF-1/rhIGFBP-3 chemical compatibility and the final compatibility decision. The class given is physicochemical.
The subject of data set [4] is insulin. As to conditions: no compatibility data available with insulin.
The test system of data set [5] is insulin. The following applies: cited from earlier work.
[6] abbreviates: mixed with rhIGF-1/rhIGFBP-3 drug product at representative clinical doses, room temperature.

Where a name gives a salt, the structure may show the parent alone. Read-outs that look alike come from different tables or passages of the source.

T1 sequence (P05019 49-118 limits assumed, stated change not applied): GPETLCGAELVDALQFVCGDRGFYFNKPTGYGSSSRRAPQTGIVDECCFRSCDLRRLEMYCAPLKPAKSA
T1 sequence (P17936 28-291, stated change not applied): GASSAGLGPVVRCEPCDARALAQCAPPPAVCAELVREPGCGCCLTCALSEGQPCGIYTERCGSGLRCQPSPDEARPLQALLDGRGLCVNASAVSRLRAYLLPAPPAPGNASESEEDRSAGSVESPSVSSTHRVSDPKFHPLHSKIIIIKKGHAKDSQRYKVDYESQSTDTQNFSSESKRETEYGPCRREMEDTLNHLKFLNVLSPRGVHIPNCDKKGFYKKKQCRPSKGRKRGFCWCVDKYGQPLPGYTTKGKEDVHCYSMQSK

As to `NCC[C@H](O)C(=O)N[C@@H]1C[C@H](N)[C@@H](O[C@H]2O[C@H](CN)[C@@H](O)[C@H](O)[C@H]2O)[C@H](O)[C@H]1O[C@H]1O[C@H](CO)[C@@H](O)[C@H](N)[C@H]1O.O=S(=O)(O)O.O=S(=O)(O)O` [Amikacin sulfate], the “physical compatibility with rhIGF-1/rhIGFBP-3” value in data set [1] (conditions and doses tested) was “considered incompatible”. In addition, in data set [1] (setting [6]), the Physical compatibility result is “No”. The “decrease in pH of mixtures compared with controls” value in data set [1] (mixture with rhIGF-1/rhIGFBP-3) is listed as “Mixtures demonstrated a decrease in pH of ~0.6 units”. The “Chemical compatibility for small-molecule content (RP-HPLC)” value (“Chemical compatibility” for short) in data set [2] is on record as “Yes (Chemical incompatibility was considered to be a loss of the small-molecule content of ~10% or more over the defined testing period)”.

Take `CC1(C)S[C@@H]2[C@H](NC(=O)[C@H](N)c3ccccc3)C(=O)N2[C@H]1C(=O)O` [Ampicillin sodium]: the “physical compatibility with rhIGF-1/rhIGFBP-3” value in data set [1] (conditions and doses tested) is on record as “considered incompatible”. In addition, the Physical compatibility entry in data set [1] (setting [6]) is recorded as “No”. Further, the “pH change post mixing (in words)” value in data set [1] (mixture with rhIGF-1/rhIGFBP-3) is “Observed change in pH of rhIGF-1/rhIGFBP-3”. For the same molecule, the “Chemical compatibility” value in data set [2] is given as “Yes (Chemical incompatibility was considered to be a loss of the small-molecule content of ~10% or more over the defined testing period)”.

Take `Cn1c(=O)c2c(ncn2C)n(C)c1=O.O=C(O)CC(O)(CC(=O)O)C(=O)O` [Caffeine citrate]: in data set [1], the Physical compatibility result is listed as “Yes^a”, the “pH difference of mixed samples compared with the control” value is listed as “demonstrated ~1.0 unit difference compared” and the “physical compatibility with rhIGF-1/rhIGFBP-3” value is listed as “physical compatibility was established”.

Turning to `CC(CCc1ccc(O)cc1)NCCc1ccc(O)c(O)c1` (stereo not shown) [Dobutamine hydrochloride], the “physical compatibility with rhIGF-1/rhIGFBP-3” value in data set [1] (conditions and doses tested) is recorded as “considered incompatible”. Further, the Physical compatibility result in data set [1] (setting [6]) was “No”. The “visual observation (and OD320) upon mixing” value in data set [1] is recorded as “physical compatibility (no precipitation, no”. In addition, the “Chemical compatibility” value in data set [2] is listed as “Yes (Chemical incompatibility was considered to be a loss of the small-molecule content of ~10% or more over the defined testing period)”. Also, in data set [3], the “final compatibility decision informed by protein-specific studies / sodium (meta)bisulfite in the formulation” value is “medication is considered incompatible”.

Consider `Cl.NCCc1ccc(O)c(O)c1` [Dopamine hydrochloride], for which, in data set [1], the Physical compatibility entry was “No”, the “pH change post mixing (in words)” value is recorded as “A dopamine dose-dependent physical change” and the “physical compatibility with rhIGF-1/rhIGFBP-3” value is “considered incompatible”. In data set [3], the “effect on rhIGF-1/rhIGFBP-3 drug product in protein-specific analyses” value is “data demonstrated an impact on the rhIGF-”.

Take `OC(Cn1cncn1)(Cn1cncn1)c1ccc(F)cc1F` [Fluconazole]: the “physical compatibility with rhIGF-1/rhIGFBP-3” value in data set [1] (conditions and doses tested) is reported as “physical compatibility was established”. Further, the Physical compatibility result in data set [1] (setting [6]) is recorded as “Yes”. In data set [2], the “Chemical compatibility” value is listed as “Yes (Chemical incompatibility was considered to be a loss of the small-molecule content of ~10% or more over the defined testing period)”. For the same molecule, in the data set with insulin [4], the “expected reaction on the basis of theoretical evaluation and the solution pH” value is on record as “a reaction is not expected”.

In the case of `NS(=O)(=O)c1cc(C(=O)O)c(NCc2ccco2)cc1Cl` [Furosemide], the “physical compatibility with rhIGF-1/rhIGFBP-3” value in data set [1] (conditions and doses tested) is “considered incompatible”. Further, the Physical compatibility result in data set [1] (setting [6]) is reported as “No”. For the same molecule, the “time after mixing to cloudiness / turbidity” value in data set [1] (mixture with rhIGF-1/rhIGFBP-3) was ≤ 30 min. Besides, in data set [1], the “visual observation (and OD320) upon mixing” value is “Cloudiness observed”. The “Chemical compatibility” value in data set [2] was “Yes (Chemical incompatibility was considered to be a loss of the small-molecule content of ~10% or more over the defined testing period)”.

For the molecule `C[C@@H](O)[C@H]1C(=O)N2C(C(=O)O)=C(S[C@@H]3CN[C@H](C(=O)N(C)C)C3)[C@H](C)[C@H]12` [Meropenem], the “physical compatibility with rhIGF-1/rhIGFBP-3” value in data set [1] (conditions and doses tested) is listed as “considered incompatible”. In addition, the Physical compatibility entry in data set [1] (setting [6]) is given as “No”. In addition, the “pH change post mixing” value in data set [1] (mixture with rhIGF-1/rhIGFBP-3) was “Observed pH change of ~2.4 post mixing,”. In addition, in data set [2], the “Chemical compatibility” value is listed as “Yes (Chemical incompatibility was considered to be a loss of the small-molecule content of ~10% or more over the defined testing period)”.

For `Cc1ncc2n1-c1ccc(Cl)cc1C(c1ccccc1F)=NC2` [Midazolam, Midazolam hydrochloride], in data set [1], the Physical compatibility result is on record as “Yes” and the “physical compatibility with rhIGF-1/rhIGFBP-3” value is “physical compatibility was established”. Further, in the data set on insulin [5], the compatibility with insulin entry is listed as “established”.

For the molecule `NC[C@H](O)c1ccc(O)c(O)c1` [Norepinephrine bitartrate], in data set [1], the “pH change post mixing (in words)” value is on record as “Only the lowest dose was physically” and the “physical compatibility with rhIGF-1/rhIGFBP-3” value is reported as “considered incompatible”.

Take `CC1(C)S[C@@H]2[C@H](NC(=O)Cc3ccccc3)C(=O)N2[C@H]1C(=O)[O-].[K+]` [Penicillin G, Penicillin G potassium]: in data set [1] (conditions and doses tested), the “physical compatibility with rhIGF-1/rhIGFBP-3” value is on record as “considered incompatible”. Besides, the pH shift result in data set [1] (highest penicillin G dose of 125,000 Units/kg/30 min) was “pH shift (up to 1.3 pH units for the highest”. Further, the Physical compatibility entry in data set [1] (setting [6]) is recorded as “No”. In data set [2], the “Chemical compatibility” value is “Yes (Chemical incompatibility was considered to be a loss of the small-molecule content of ~10% or more over the defined testing period)”.

With `CN[C@H](CC(C)C)C(=O)N[C@H]1C(=O)N[C@@H](CC(N)=O)C(=O)N[C@H]2C(=O)N[C@H]3C(=O)N[C@H](C(=O)N[C@H](C(=O)O)c4cc(O)cc(O)c4-c4cc3ccc4O)[C@H](O)c3ccc(c(Cl)c3)Oc3cc2cc(c3O[C@@H]2O[C@H](CO)[C@@H](O)[C@H](O)[C@H]2O[C@H]2C[C@](C)(N)[C@H](O)[C@H](C)O2)Oc2ccc(cc2Cl)[C@H]1O` [Vancomycin hydrochloride], in data set [1], the Physical compatibility result is reported as “Yes”. Moreover, the compatibility with insulin entry in the data set with insulin [5] was “established”.

Regarding Gentamicin, the “Chemical compatibility” value in data set [2] was “Yes (Chemical incompatibility was considered to be a loss of the small-molecule content of ~10% or more over the defined testing period)”.

For the molecule Insulin, in data set [1] (conditions and doses tested), the “physical compatibility with rhIGF-1/rhIGFBP-3” value is recorded as “physical compatibility was established”. The Physical compatibility entry in data set [1] (setting [6]) is listed as “Yes”. Moreover, the “Chemical compatibility” value in data set [2] was “Yes (Chemical incompatibility was considered to be a loss of the small-molecule content of ~10% or more over the defined testing period)”.

Take “rhIGF-1/rhIGFBP-3 drug product: recombinant human protein complex of insulin-like growth factor-1 (IGF-1) and insulin-like growth factor binding protein-3 (IGFBP-3)”: in data set [1] (not in the mixture), the “pH value of the unmixed product” value amounted to 5.5.

(Values after US20260248894A1, “COMBINATION THERAPY FOR PRETERM INFANTS” (Oak Hill Bio Ltd, priority 2022, published 2026).)
